Experimental data taken from paper PMC4298667, “Chemical and protein structural basis for biological crosstalk between PPARα and COX enzymes” (Journal of Computer-Aided Molecular Design, 2014).
Blank lines part the entries; values can stand above or below the compound they belong to.

How the values were obtained:
[1] = target: T1, COX-1 (Homo sapiens, UniProt P23219); assay: microsomal enzyme assay, percent inhibition at […] (marginal, […], at […]); assay type: biochemical; parameters: gene PTGS1; recombinant human COX-1, microsomes from transfected Sf9 cells
T1 sequence (P23219 24-599): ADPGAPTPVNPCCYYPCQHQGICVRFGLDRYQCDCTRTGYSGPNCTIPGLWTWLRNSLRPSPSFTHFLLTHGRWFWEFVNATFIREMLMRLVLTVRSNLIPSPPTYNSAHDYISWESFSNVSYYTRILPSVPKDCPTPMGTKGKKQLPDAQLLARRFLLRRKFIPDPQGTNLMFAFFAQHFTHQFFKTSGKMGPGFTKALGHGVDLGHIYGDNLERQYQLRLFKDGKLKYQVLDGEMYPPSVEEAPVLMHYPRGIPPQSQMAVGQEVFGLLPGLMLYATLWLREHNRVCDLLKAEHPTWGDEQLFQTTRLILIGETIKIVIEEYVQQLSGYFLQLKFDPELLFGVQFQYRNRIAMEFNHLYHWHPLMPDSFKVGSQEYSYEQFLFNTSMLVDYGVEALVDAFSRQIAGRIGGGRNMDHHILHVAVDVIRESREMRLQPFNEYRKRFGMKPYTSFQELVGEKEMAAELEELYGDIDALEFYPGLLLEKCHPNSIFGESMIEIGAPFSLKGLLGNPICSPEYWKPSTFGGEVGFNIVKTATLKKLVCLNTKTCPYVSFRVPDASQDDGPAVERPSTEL

[2] = target: T1, COX-1; parameters: gene PTGS1
[3] = target: T1, COX-1; assay: microsomal enzyme assay, percent inhibition at […] (only […] at […]); assay type: cell-free; parameters: gene PTGS1; recombinant human COX-1, microsomes from transfected Sf9 cells

- inhibition at 250 µM [1]: 14%
SMILES: CC(C)(Oc1ccc(Cl)cc1)C(=O)O [clofibric acid]

- IC50 [2]: 950 µM
SMILES: CC(C)(Oc1ccc(C(=O)c2ccc(Cl)cc2)cc1)C(=O)O [fenofibric acid]

- inhibition at 250 µM [3]: 18%
SMILES: Cc1ccc(C)c(OCCCC(C)(C)C(=O)O)c1 [gemfibrozil]
